System: subjects with GERD
Conditions: human, in vivo
Source text: The study began in March 2020 when a total of 110 subjects were screened for GERD using stringent eligibility criteria by the study coordinator and the principal investigator. […] The subjects acted as their own controls and there was no placebo arm. All subjects had active symptoms as determined by verbal history and daily ReQuest (RQ) validated GERD questionnaire symptom scores above specified thresholds, or GERD symptoms at four or more days per week.
As of May 2021, 44 subjects had completed the following protocol. […] Symptom evaluation for each included: RQ_GI: acid and abdominal (upper/lower) complaints, nausea; RQ_WSO: general well-being, sleep disturbances, and other complaints; and RQ_TOT: the sum of both. The Short Form 36 Health Survey validated questionnaire (see webpage physio-pedia.com/36-Item_Short_Form_Survey_(SF-36)) was used to assess quality of life. The SF-36 form was completed by subjects on day seven of week zero as well as on each day seven per week during the study duration. The subjects had to report any usage of GERD medications such as PPIs, H2 antagonists, and acids throughout the study, as well as any changes in their other medications. The primary endpoint was tolerability, defined as ending on week four with a request symptom score and a SF-36 score that was at or better than the baseline week zero score (determined as >0% reduction in weekly mean RQ symptom scores as % from baseline to week 4). Statistical analysis was done using the Wilcoxon signed-rank test with multiple comparison correction. In addition, a comparison was made of the number of days without acid complaints per week, or the heartburn-free days per week, for week four compared to the week zero baseline.
It was taken 1 g daily at bedtime.
All subjects had active GERD symptoms as determined by the ReQuest validated GERD specific questionnaire and/or GERD symptoms at least 4 days per week. […] All subjects were screened per the eligibility criteria delineated in this protocol by the study coordinator. The study was done remotely. There was communication but no in person contact or visits with the study coordinator.
Two phases were designed into this study. Phase 1 was the Screening Phase (SP). Phase 2 was the Tolerability Phase (TP). Subjects were instructed to take a daily GERD symptom questionnaire, the ReQuest Short Version, daily throughout the study. At five timepoints, specific scores were established for comparison and statistical analysis.

## maltosyl-isomaltooligosaccharides [ISOT-101]
  ISOT-101-related adverse events: no ISOT-101-related adverse events
  nausea, number of patients: 2 patients
  nausea, share of patients: 5%
  subjects who either did not improve or got worse: Five
  tolerability (in words): well tolerated
  worsening of RQ_GI (gastrointestinal symptoms), number of subjects: 5 of 44
  worsening of RQ_TOT (total scores), number of subjects: 4 of 44
  worsening of RQ_TOT (total scores), share of subjects: 9%
